From BindingDB's records for doi:10.1021/jm0492397 (Saarland University, 2005)

target: T1, Cytochrome P450 11B1, mitochondrial (Homo sapiens, UniProt P15538); assay: CYP11B assay
T1 sequence (P15538 whole entry): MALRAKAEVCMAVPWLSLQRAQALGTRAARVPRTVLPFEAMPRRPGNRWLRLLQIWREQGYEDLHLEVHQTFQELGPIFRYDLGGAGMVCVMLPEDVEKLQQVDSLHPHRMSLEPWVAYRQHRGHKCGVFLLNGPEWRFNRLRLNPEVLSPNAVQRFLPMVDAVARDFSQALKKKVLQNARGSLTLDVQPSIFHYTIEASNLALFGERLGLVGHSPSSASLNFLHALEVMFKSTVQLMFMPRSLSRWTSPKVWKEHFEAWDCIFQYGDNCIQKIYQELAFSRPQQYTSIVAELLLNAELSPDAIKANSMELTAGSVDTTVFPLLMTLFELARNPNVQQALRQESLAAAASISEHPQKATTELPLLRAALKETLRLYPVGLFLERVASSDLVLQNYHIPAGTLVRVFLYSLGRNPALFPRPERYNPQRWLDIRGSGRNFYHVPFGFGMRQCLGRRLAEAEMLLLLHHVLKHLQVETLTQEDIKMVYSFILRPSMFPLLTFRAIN
Procedure: The enzyme activity was assayed by monitoring the conversion of deoxycorticosterone to corticosterone in the presence of inhibitor compounds. The product formation was monitored by HPTLC using a phosphoimager system.

| SMILES | IC50 |
| --- | --- |
| C/C(=C1/CCc2cc(F)ccc21)c1cccnc1 [3-{1-[(1E)-5-fluoro-2,3-dihydro-1H-inden-1-ylidene]ethyl}pyridine] | 159 nM |
| C(=C1/CCCc2ccccc21)/c1ccncc1 [4-[(E)-3,4-Dihydronaphthalen-1(2H)-ylidenemethyl]pyridine] | 282 nM |
| Brc1ccc2c(c1)CC/C2=C/c1ccncc1 [4-{[(1Z)-5-bromo-2,3-dihydro-1H-inden-1-ylidene]methyl}pyridine] | 877 nM |
| Clc1ccc2c(c1)CC/C2=C/c1ccncc1 [4-{[(1Z)-5-chloro-2,3-dihydro-1H-inden-1-ylidene]methyl}pyridine] | 1120 nM |
